Where only a bound is given, the exact number is not on record here.

The test system of data set [1] is Human immunodeficiency virus 1. The experiment in a line: Antiviral activity against VSVG/wild-type HIV-1 infected in human HEK 293T cells assessed as viral infection at 10 uM preincubated with cells for 15 mins prior to viral infection and measured at 48 hrs post-infection by luciferase reporter gene assay. The conditions noted are these: time 2895 min, 48.25 h. It is filed as functional, HEK293T. On the technique in general: A reporter such as luciferase makes a cellular process visible.

For data set [2], the system named is HEK-293T. Briefly: Cytotoxicity against human HEK 293T cells assessed as reduction in cell viability measured after 48 hrs by Celltiter-glo assay. Format: cell-based. Background: In ATP-based viability assays light output follows the ATP content of the culture.
The test system of data set [3] is HEK-293T. Briefly: Cytotoxicity against human HEK 293T cells assessed as cell viability at 30 uM measured after 48 hrs by Celltiter-glo assay. Format: cell-based.
The test system of data set [4] is Human immunodeficiency virus 1. The experiment in a line: Antiviral activity against VSVG/wild-type HIV-1 infected in human HEK 293T cells assessed as inhibition of virus replication preincubated with cells for 15 mins prior to viral infection and measured at 48 hrs post-infection by luciferase reporter gene assay. Format: functional, organism-based, HEK293T. The conditions noted are these: Human immunodeficiency virus 1, HEK-293T.

Data set [5] can be described thus: Selectivity index, ratio of CC50 for human HEK 293T cells to EC50 for VSVG/wild type HIV1 infected in human HEK 293T cells. It is filed as toxicity, cell-based. The conditions noted are these: read-out: Ratio CC50/EC50.

Usually CC50 stands for the concentration at which the toxic effect on the cells reaches its halfway point. The EC50 is the concentration that produces a half-maximal response. Turning to `COn1cc(CC(=O)Nc2cc(C)cc(C)c2)c2ccccc21`, the Activity was 87.28% in data set [1] and 62.62% in data set [3]. In addition, the CC50 in data set [2] is above 30 µM. Besides, the EC50 in data set [4] is above 10 µM.
With `CCCCOn1cc(CC(=O)Nc2ccccc2Cl)c2ccccc21`, in data set [2], the CC50 was 29.1 µM. Further, the selectivity ratio in data set [5] turned out to be 45.5. Besides, the 50% effective concentration (EC50) in data set [4] was 0.64 µM.
Regarding `COn1cc(CC(=O)Nc2ccc(Cl)cc2)c2ccccc21`, the Activity in data set [1] is given as 103.55%; in data set [3], 51.01%. The CC50 in data set [2] is above 30 µM. For the same molecule, in data set [4], the EC50 was above 10 µM.
For the molecule `COn1cc(CC(=O)Nc2ccccc2)c2ccccc21`, the Activity in data set [1] came to 113.22%. For the same molecule, the CC50 in data set [2] amounted to 28 µM. The EC50 in data set [4] was above 10 µM.
In the same order, the values of `CC(=O)On1cc(CC(=O)Nc2ccccc2Cl)c2ccccc21` are 146.89%, 28.1 µM and above 10 µM.
In the same order, the values of `COC(=O)c1ccccc1NC(=O)CCc1cn(OC)c2ccccc12` are 74.25%, 26.8 µM and above 10 µM.
For `O=C(Cc1cn(OC(=O)c2ccccc2)c2ccccc12)Nc1ccccc1Cl` the same measures were 113.06%, 29.4 µM and above 10 µM.
Regarding `CCCCCCCCCCOn1cc(CC(=O)Nc2ccccc2Cl)c2ccccc21`, the values for the Activity in data set [1] and in data set [3] were 97.73% and 52.8%, respectively. Besides, the CC50 in data set [2] is above 30 µM. Further, in data set [4], the EC50 is above 10 µM.
`COC(=O)c1ccccc1NC(=O)Cc1cn(O)c2ccccc12`: the Activity in data set [1] is 107.1%. In data set [2], the CC50 was found to be 24.6 µM. Also, the EC50 in data set [4] is above 10 µM.
As to `COc1ccccc1NC(=O)Cc1cn(OC)c2ccccc12`, the values for the Activity in data set [1] and in data set [3] were 71.46% and 59.57%, respectively. For the same molecule, the CC50 in data set [2] was above 30 µM. The EC50 in data set [4] is above 10 µM.
For `COC(=O)c1cccc(NC(=O)Cc2cn(OC)c3ccccc23)c1`, the results for the Activity in data set [1] and in data set [3] were 109.33% and 50.46%, respectively. Also, the CC50 in data set [2] was above 30 µM. Also, the EC50 in data set [4] is above 10 µM.
On to `COn1cc(CC(=O)Nc2ccncc2Br)c2ccccc21`, for which, in data set [2], the CC50 stood at 18.6 µM. The selectivity ratio in data set [5] was 28.1. In addition, the EC50 in data set [4] was found to be 0.66 µM.
As to `COc1cc(NC(=O)Cc2cn(OC)c3ccccc23)cc(OC)c1OC`, the Activity in data set [1] is given as 47.94%. Besides, the half-maximal cytotoxic concentration (CC50) in data set [2] stood at 13.9 µM. Besides, the EC50 in data set [4] is above 10 µM.
`CCCOn1cc(CC(=O)Nc2ccncn2)c2ccccc21`: the CC50 in data set [2] is 17.9 µM. For the same molecule, the selectivity ratio in data set [5] turned out to be 5.43. For the same molecule, the EC50 in data set [4] was 3.3 µM.
As for `CCCOn1cc(Cc2ccncc2)c2ccccc21`, the Activity in data set [1] turned out to be 99.48%; in data set [3] it was 69.96%. Further, the CC50 in data set [2] is above 30 µM. Also, in data set [4], the EC50 was above 10 µM.
In the same order, the values of `COC(=O)c1ccccc1NC(=O)CC1CNc2ccccc21` (stereo unspecified) are 82.96%, 71.46%, above 30 µM and above 10 µM.
Regarding `CCCCCCCCCOn1cc(CC(=O)Nc2ccccc2Cl)c2ccccc21`, the Activity in data set [1] is given as 58.3%. For the same molecule, the CC50 in data set [2] is 28.9 µM. Moreover, the EC50 in data set [4] is above 10 µM.
Consider `O=C(Cc1cn(OCc2ccccc2)c2ccccc12)Nc1ccccc1Cl`, for which, in data set [2], the half-maximal cytotoxic concentration (CC50) worked out at 16.5 µM. Also, the selectivity ratio in data set [5] was determined as 1.93. Further, the EC50 in data set [4] was found to be 8.55 µM.
Take `CCCCCCCOn1cc(CC(=O)Nc2ccccc2Cl)c2ccccc21`: the CC50 in data set [2] was found to be 23.9 µM. The selectivity ratio in data set [5] worked out at 12.2. Besides, in data set [4], the EC50 amounted to 1.95 µM.
Take `CCCOn1cc(Cc2c(Cl)cncc2Cl)c2ccccc21`: the Activity in data set [1] is 93.41%; in data set [3] it was 77.47%. In addition, in data set [2], the CC50 is above 30 µM. Further, in data set [4], the EC50 was above 10 µM.
On to `COn1cc(CC(=O)Nc2ccccc2Br)c2ccccc21`, for which, in data set [2], the CC50 was above 30 µM. Further, in data set [5], the selectivity ratio was above 9.38. The Activity in data set [3] is reported as 83.48%. For the same molecule, the EC50 in data set [4] worked out at 3.2 µM.
On to `CCCOn1cc(Cc2ccncc2Cl)c2ccccc21`, for which the Activity turned out to be 65.67% in data set [1] and 67.37% in data set [3]. Moreover, in data set [2], the CC50 was above 30 µM. Also, the EC50 in data set [4] is above 10 µM.
Take `COn1cc(CC(=O)Nc2ccc(C)cc2)c2ccccc21`: the Activity in data set [1] worked out at 124.35%; in data set [3], 52.47%. Also, the cytotoxic concentration (CC50) in data set [2] was above 30 µM. For the same molecule, in data set [4], the EC50 was above 10 µM.
As for `COn1cc(CC(=O)Nc2ccccc2I)c2ccccc21`, in data set [2], the CC50 was above 30 µM. In data set [5], the selectivity ratio is above 6.82. In addition, the Activity in data set [3] is reported as 67.04%. Also, the EC50 in data set [4] came to 4.4 µM.
Turning to `CCOn1cc(CC(=O)Nc2ccccc2Cl)c2ccccc21`, in data set [2], the CC50 turned out to be 20.8 µM. For the same molecule, the selectivity ratio in data set [5] was 24.2. The EC50 in data set [4] was 0.86 µM.
For `COn1cc(CC(=O)Nc2ccccc2Cl)c2ccccc21` the same measures were 27.8 µM, 8.42 and 3.3 µM.
With `COn1cc(CC(=O)Nc2ccccc2F)c2ccccc21`, the Activity in data set [1] was determined as 72.89%. Further, the CC50 in data set [2] came to 28.6 µM. The EC50 in data set [4] is above 10 µM.
`CCCCCOn1cc(CC(=O)Nc2ccncc2Cl)c2ccccc21`: the CC50 in data set [2] was 22 µM. For the same molecule, the selectivity ratio in data set [5] was found to be 169. The EC50 in data set [4] turned out to be 0.13 µM.
For `CCCOn1cc(CC(=O)Nc2ccccc2C(F)(F)F)c2ccccc21` the same measures were 24.9 µM, 5.81 and 4.28 µM.
As to `COc1ccc(COn2cc(CC(=O)Nc3ccccc3Cl)c3ccccc32)cc1`, in data set [1], the Activity came out at 73.2%. Further, the cytotoxic concentration (CC50) in data set [2] stood at 20.3 µM. The EC50 in data set [4] is above 10 µM.
For the molecule `COn1cc(CC(=O)Nc2ccccc2C)c2ccccc21`, the Activity in data set [1] worked out at 53.31%; in data set [3], 62.74%. Further, the CC50 in data set [2] was above 30 µM. In addition, the EC50 in data set [4] is above 10 µM.
For the molecule `CCCOn1cc(CC(=O)Nc2ccncc2F)c2ccccc21`, in data set [2], the CC50 came to 14.1 µM. In addition, the selectivity ratio in data set [5] was 42.8. Moreover, the EC50 in data set [4] was determined as 0.33 µM.
For the molecule `COc1cccc(NC(=O)Cc2cn(OC)c3ccccc23)c1`, the Activity in data set [1] is on record as 104.29%; in data set [3], 86.68%. For the same molecule, the CC50 in data set [2] was above 30 µM. The EC50 in data set [4] is above 10 µM.
For `COC(=O)c1ccc(NC(=O)Cc2cn(OC)c3ccccc23)cc1` the same measures were 104.33%, 72.64%, above 30 µM and above 10 µM.
In the same order, the values of `COn1cc(CC(=O)Nc2cccc(Cl)c2)c2ccccc21` are 113%, 61.02%, above 30 µM and above 10 µM.
In the same order, the values of `COC(=O)c1ccccc1NC(=O)CCCc1cn(OC)c2ccccc12` are 82.07%, 61.31%, above 30 µM and above 10 µM.
On to `COn1cc(CC(=O)Nc2ccc([N+](=O)[O-])cc2)c2ccccc21`, for which the Activity in data set [1] was 81.41%; in data set [3] it was 54%. Also, the CC50 in data set [2] is above 30 µM. Besides, the EC50 in data set [4] was above 10 µM.
Consider `COn1cc(CC(=O)Nc2ccccn2)c2ccccc21`, for which the results for the Activity in data set [1] and in data set [3] were 138.11% and 63.67%, respectively. Further, the CC50 in data set [2] was above 30 µM. The EC50 in data set [4] is above 10 µM.
For `COn1cc(CC(=O)Nc2cccnc2)c2ccccc21` the same measures were 118.26%, 78.7%, above 30 µM and above 10 µM.
Take `COn1cc(CC(=O)Nc2ccncc2Cl)c2ccccc21`: the CC50 in data set [2] is 20 µM. The selectivity ratio in data set [5] is 37.7. In addition, the EC50 in data set [4] worked out at 0.53 µM.
For the molecule `COn1cc(CC(=O)Nc2ccc(C)c(C)c2)c2ccccc21`, the Activity in data set [1] is 95.02%; in data set [3] it was 51.62%. For the same molecule, in data set [2], the CC50 was above 30 µM. Also, the EC50 in data set [4] was above 10 µM.
Regarding `CCCCCOn1cc(CC(=O)Nc2ccccc2Cl)c2ccccc21`, the CC50 in data set [2] is 18.7 µM. In data set [5], the selectivity ratio is 29.7. Further, the EC50 in data set [4] came out at 0.63 µM.
`COc1ccc(NC(=O)Cc2cn(OC)c3ccccc23)cc1`: the Activity in data set [1] turned out to be 128.61%; in data set [3], 86.09%. The CC50 in data set [2] is above 30 µM. Also, the EC50 in data set [4] is above 10 µM.
Consider `COc1cc(NC(=O)Cc2cn(OC)c3ccccc23)cc(OC)c1`, for which the Activity in data set [1] came to 98.07%. Also, the CC50 in data set [2] is 21.6 µM. Also, in data set [4], the EC50 is above 10 µM.
`COC(=O)c1ccccc1NC(=O)Cc1c[nH]c2ccccc12`: the Activity is reported as 91.98% in data set [1] and 65.5% in data set [3]. For the same molecule, the CC50 in data set [2] was above 30 µM. Further, the EC50 in data set [4] was above 10 µM.
Regarding `CCCCCCCCOn1cc(CC(=O)Nc2ccccc2Cl)c2ccccc21`, the CC50 in data set [2] stood at 22.9 µM. For the same molecule, the selectivity ratio in data set [5] is 5.21. In data set [4], the EC50 amounted to 4.4 µM.
Consider `CCOC(=O)c1ccccc1NC(=O)Cc1cn(OC)c2ccccc12`, for which the Activity in data set [1] amounted to 60.76%. Moreover, in data set [2], the CC50 was determined as 29.1 µM. In data set [4], the EC50 is above 10 µM.
For `CCc1ccccc1NC(=O)Cc1cn(OC)c2ccccc12`, the Activity came out at 64.33% in data set [1] and 68.5% in data set [3]. In data set [2], the CC50 was above 30 µM. The EC50 in data set [4] is above 10 µM.
On to `COn1cc(CC(=O)Nc2ccncc2)c2ccccc21`, for which the CC50 in data set [2] came out at 14.3 µM. In addition, the selectivity ratio in data set [5] was found to be 2.88. In addition, the EC50 in data set [4] came to 4.95 µM.
